Experimental data reported in patent US20240043404A1 (AbbVie Inc., priority 2009, published 2024).
pEC50: −log10 of the molar value.

System: RS4;11 cells
Assay: RS4;11 cell viability assay (CellTiter Glo);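 also: acute lymphoblastic leukemia line RS4,11, EC50 derived from percentage of viable cells after treatment relative to untreated controls, cell killing taken as a measure of Bcl-2 inhibition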
Assay type: cell-based, human
Settings: Homo sapiens, RS4-11, 48 h, 50,000 cells per well, 10% human serum, 48 hours; read-out: RS4; 11 EC50 Values
Description: The acute lymphoblastic leukemia (ALL) cell line RS4;11 was used as the primary human cell line to assess the cellular activity of Bcl-2 selective agents in vitro and their efficacy in vivo.
Cell cytotoxicity EC50 values were assessed using CellTiter Glo (Promega) according to the manufacturer's recommendations. The EC50 values were determined as a percentage of viable cells following treatment compared to the untreated control cells.

Row | pEC50 | Structure (SMILES)
1 | 7.60 | CC1(C)CCC(CN2CCN(c3ccc(C(=O)NS(=O)(=O)c4ccc(NCCC#N)c([N+](=O)[O-])c4)c(Oc4cnc5[nH]ccc5c4)c3)CC2)=C(c2ccc(Cl)cc2)C1 [Example 62, 4-(4-{[2-(4-chlorophenyl)-4,4-dimethylcyclohex-1-en-1-yl]methyl}piperazin-1-yl)-N-({4-[(2-cyanoethyl)amino]-3-nitrophenyl}sulfonyl)-2-(1H-pyrrolo[2,3-b]pyridin-5-yloxy)benzamide]
2 | 8.12 | CC1(C)CC(c2ccc(Cl)cc2)=C(CN2CCN(c3ccc(C(=O)NS(=O)(=O)c4ccc(N[C@H]5CC[C@@H](N6CCOCC6)CC5)c([N+](=O)[O-])c4)c(Oc4cnc5[nH]ccc5c4)c3)CC2)CO1 [Example 63, Cis-4-(4-{[4-(4-chlorophenyl)-6,6-dimethyl-5,6-dihydro-2H-pyran-3-yl]methyl}piperazin-1-yl)-N-({4-[(4-morpholin-4-ylcyclohexyl)amino]-3-nitrophenyl}sulfonyl)-2-(1H-pyrrolo[2,3-b]pyridin-5-yloxy)benzamide]
3 | 9.60 | CC1(C)CCC(CN2CCN(c3ccc(C(=O)NS(=O)(=O)c4ccc(N[C@H]5CC[C@H](N(CC6CC6)CC6CC6)CC5)c([N+](=O)[O-])c4)c(Oc4cnc5[nH]ccc5c4)c3)CC2)=C(c2ccc(Cl)cc2)C1 [Example 64, Trans-N-{[4-({4-[bis(cyclopropylmethyl)amino]cyclohexyl}amino)-3-nitrophenyl]sulfonyl}-4-(4-{[2-(4-chlorophenyl)-4,4-dimethylcyclohex-1-en-1-yl]methyl}piperazin-1-yl)-2-(1H-pyrrolo[2,3-b]pyridin-5-yloxy)benzamide]
4 | 9.60 | CN1CCC(CNc2ccc(S(=O)(=O)NC(=O)c3ccc(N4CCN(CC5=C(c6ccc(Cl)cc6)CC(C)(C)CC5)CC4)cc3Oc3cnc4[nH]ccc4c3)cc2[N+](=O)[O-])CC1 [Example 65, 4-(4-{[2-(4-chlorophenyl)-4,4-dimethylcyclohex-1-en-1-yl]methyl}piperazin-1-yl)-N-[(4-{[(1-methylpiperidin-4-yl)methyl]amino}-3-nitrophenyl)sulfonyl]-2-(1H-pyrrolo[2,3-b]pyridin-5-yloxy)benzamide]
5 | 7.72 | CC1(C)CCC(CN2CCN(c3ccc(C(=O)NS(=O)(=O)c4ccc(NCC5COCCN5)c([N+](=O)[O-])c4)c(Oc4cnc5[nH]ccc5c4)c3)CC2)=C(c2ccc(Cl)cc2)C1 (stereo not shown) [Example 66, 4-(4-{[2-(4-chlorophenyl)-4,4-dimethylcyclohex-1-en-1-yl]methyl}piperazin-1-yl)-N-({4-[(morpholin-3-ylmethyl)amino]-3-nitrophenyl}sulfonyl)-2-(1H-pyrrolo[2,3-b]pyridin-5-yloxy)benzamide]
6 | 7.31 | CN1CCN(Nc2ccc(S(=O)(=O)NC(=O)c3ccc(N4CCN(CC5=C(c6ccc(Cl)cc6)CC(C)(C)OC5)CC4)cc3Oc3cnc4[nH]ccc4c3)cc2[N+](=O)[O-])CC1 [Example 67, 4-(4-{[4-(4-chlorophenyl)-6,6-dimethyl-5,6-dihydro-2H-pyran-3-yl]methyl}piperazin-1-yl)-N-({4-[(4-methylpiperazin-1-yl)amino]-3-nitrophenyl}sulfonyl)-2-(1H-pyrrolo[2,3-b]pyridin-5-yloxy)benzamide]
7 | 6.96 | CC1(C)CCC(CN2CCN(c3ccc(C(=O)NS(=O)(=O)c4ccc(OCC#CCN5CCOCC5)c([N+](=O)[O-])c4)c(Oc4cnc5[nH]ccc5c4)c3)CC2)=C(c2ccc(Cl)cc2)C1 [Example 68, 4-(4-{[2-(4-chlorophenyl)-4,4-dimethylcyclohex-1-en-1-yl]methyl}piperazin-1-yl)-N-({4-[(4-morpholin-4-ylbut-2-ynyl)oxy]-3-nitrophenyl}sulfonyl)-2-(1H-pyrrolo[2,3-b]pyridin-5-yloxy)benzamide]
8 | 5.76 | C#Cc1cc(S(=O)(=O)NC(=O)c2ccc(N3CCN(CC4=C(c5ccc(Cl)cc5)CC(C)(C)CC4)CC3)cc2Oc2cnc3[nH]ccc3c2)cnc1OCC1CCOCC1 [Example 69, 4-(4-{[2-(4-chlorophenyl)-4,4-dimethylcyclohex-1-en-1-yl]methyl}piperazin-1-yl)-N-{[5-ethynyl-6-(tetrahydro-2H-pyran-4-ylmethoxy)pyridin-3-yl]sulfonyl}-2-(1H-pyrrolo[2,3-b]pyridin-5-yloxy)benzamide]
9 | < 5.30 | CC1(C)CCC(CN2CCN(c3ccc(C(=O)NS(=O)(=O)c4ccc5nc[nH]c(=O)c5c4)c(Oc4cnc5[nH]ccc5c4)c3)CC2)=C(c2ccc(Cl)cc2)C1 [Example 70, 4-(4-{[2-(4-chlorophenyl)-4,4-dimethylcyclohex-1-en-1-yl]methyl}piperazin-1-yl)-N-[(4-oxo-3,4-dihydroquinazolin-6-yl)sulfonyl]-2-(1H-pyrrolo[2,3-b]pyridin-5-yloxy)benzamide]
10 | 7.04 | O=C(NS(=O)(=O)c1ccc(N[C@H]2CC[C@H](N3CCOCC3)CC2)c([N+](=O)[O-])c1)c1ccc(N2CCN(CC3=C(c4ccc(Cl)cc4)CCC4(CCCC4)C3)CC2)cc1Oc1cnc2[nH]ccc2c1 [Example 71, Trans-4-(4-{[8-(4-chlorophenyl)spiro[4.5]dec-7-en-7-yl]methyl}piperazin-1-yl)-N-({4-[(4-morpholin-4-ylcyclohexyl)amino]-3-nitrophenyl}sulfonyl)-2-(1H-pyrrolo[2,3-b]pyridin-5-yloxy)benzamide]
11 | 8.12 | CO[C@H]1CC[C@@H](CNc2ccc(S(=O)(=O)NC(=O)c3ccc(N4CCN(CC5=C(c6ccc(Cl)cc6)CC(C)(C)OC5)CC4)cc3Oc3cnc4[nH]ccc4c3)cc2[N+](=O)[O-])CC1 [Example 72, Cis-4-(4-{[4-(4-chlorophenyl)-6,6-dimethyl-5,6-dihydro-2H-pyran-3-yl]methyl}piperazin-1-yl)-N-[(4-{[(4-methoxycyclohexyl)methyl]amino}-3-nitrophenyl)sulfonyl]-2-(1H-pyrrolo[2,3-b]pyridin-5-yloxy)benzamide]
12 | 7.63 | O=C(NS(=O)(=O)c1ccc(OCC2(F)CCOCC2)c([N+](=O)[O-])c1)c1ccc(N2CCN(CC3=C(c4ccc(Cl)cc4)CCC4(CCCC4)C3)CC2)cc1Oc1cnc2[nH]ccc2c1 [Example 73, 4-(4-{[8-(4-chlorophenyl)spiro[4.5]dec-7-en-7-yl]methyl}piperazin-1-yl)-N-({4-[(4-fluorotetrahydro-2H-pyran-4-yl)methoxy]-3-nitrophenyl}sulfonyl)-2-(1H-pyrrolo[2,3-b]pyridin-5-yloxy)benzamide]
13 | 7.24 | CO[C@H]1CC[C@H](CNc2ccc(S(=O)(=O)NC(=O)c3ccc(N4CCN(CC5=C(c6ccc(Cl)cc6)CCC6(CCCC6)C5)CC4)cc3Oc3cnc4[nH]ccc4c3)cc2[N+](=O)[O-])CC1 [Example 74, Trans-4-(4-{[8-(4-chlorophenyl)spiro[4.5]dec-7-en-7-yl]methyl}piperazin-1-yl)-N-[(4-{[(4-methoxycyclohexyl)methyl]amino}-3-nitrophenyl)sulfonyl]-2-(1H-pyrrolo[2,3-b]pyridin-5-yloxy)benzamide]
14 | 7.82 | CC1(C)CCC(c2ccc(Cl)cc2)=C(CN2CCN(c3ccc(C(=O)NS(=O)(=O)c4ccc(NCC5CCOCC5)c([N+](=O)[O-])c4)c(Oc4cnc5[nH]ccc5c4)c3)CC2)C1 [Example 75, 4-(4-{[2-(4-chlorophenyl)-5,5-dimethylcyclohex-1-en-1-yl]methyl}piperazin-1-yl)-N-({3-nitro-4-[(tetrahydro-2H-pyran-4-ylmethyl)amino]phenyl}sulfonyl)-2-(1H-pyrrolo[2,3-b]pyridin-5-yloxy)benzamide]
15 | 6.29 | CC1(C)CCC(c2ccc(Cl)cc2)=C(CN2CCN(c3ccc(C(=O)NS(=O)(=O)c4cnc(OCC5CCOCC5)c(C#N)c4)c(Oc4cnc5[nH]ccc5c4)c3)CC2)C1 [Example 76, 4-(4-{[2-(4-chlorophenyl)-5,5-dimethylcyclohex-1-en-1-yl]methyl}piperazin-1-yl)-N-{[5-cyano-6-(tetrahydro-2H-pyran-4-ylmethoxy)pyridin-3-yl]sulfonyl}-2-(1H-pyrrolo[2,3-b]pyridin-5-yloxy)benzamide]
16 | 6.12 | CC1(C)CCC(CN2CCN(c3ccc(C(=O)NS(=O)(=O)c4ccc(OCC5COCCN5C(=O)OC(C)(C)C)c([N+](=O)[O-])c4)c(Oc4cnc5[nH]ccc5c4)c3)CC2)=C(c2ccc(Cl)cc2)C1 (stereo not shown) [Example 77, tert-butyl 3-{[4-({[4-(4-{[2-(4-chlorophenyl)-4,4-dimethylcyclohex-1-en-1-yl]methyl}piperazin-1-yl)-2-(1H-pyrrolo[2,3-b]pyridin-5-yloxy)benzoyl]amino}sulfonyl)-2-nitrophenoxy]methyl}morpholine-4-carboxylate]
17 | 7.90 | CC1(C)CCC(CN2CCN(c3ccc(C(=O)NS(=O)(=O)c4ccc(OCC5COCCN5)c([N+](=O)[O-])c4)c(Oc4cnc5[nH]ccc5c4)c3)CC2)=C(c2ccc(Cl)cc2)C1 (stereo not shown) [Example 78, 4-(4-{[2-(4-chlorophenyl)-4,4-dimethylcyclohex-1-en-1-yl]methyl}piperazin-1-yl)-N-{[4-(morpholin-3-ylmethoxy)-3-nitrophenyl]sulfonyl}-2-(1H-pyrrolo[2,3-b]pyridin-5-yloxy)benzamide]
18 | 7.19 | O=C(NS(=O)(=O)c1ccc(NCC2CCOCC2)c([N+](=O)[O-])c1)c1ccc(N2CCN(CC3=C(c4ccc(Cl)cc4)CCC4(CCCC4)C3)CC2)cc1Oc1cnc2[nH]ccc2c1 [Example 79, 4-(4-{[8-(4-chlorophenyl)spiro[4.5]dec-7-en-7-yl]methyl}piperazin-1-yl)-N-({3-nitro-4-[(tetrahydro-2H-pyran-4-ylmethyl)amino]phenyl}sulfonyl)-2-(1H-pyrrolo[2,3-b]pyridin-5-yloxy)benzamide]
19 | 7.16 | CC1(C)CCC(CN2CCN(c3ccc(C(=O)NS(=O)(=O)c4ccc(NC5CCN(S(C)(=O)=O)CC5)c([N+](=O)[O-])c4)c(Oc4cnc5[nH]ccc5c4)c3)CC2)=C(c2ccc(Cl)cc2)C1 [Example 80, 4-(4-{[2-(4-chlorophenyl)-4,4-dimethylcyclohex-1-en-1-yl]methyl}piperazin-1-yl)-N-[(4-{[1-(methylsulfonyl)piperidin-4-yl]amino}-3-nitrophenyl)sulfonyl]-2-(1H-pyrrolo[2,3-b]pyridin-5-yloxy)benzamide]
